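96-well plates; 48 h exposure; 5 concentrations. Endpoints by linear interpolation between flanking doses. Not reached: highest tested concentration assigned. GI50: concentration for 50% inhibition of growth. TGI denotes the concentration required for complete inhibition of growth.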
Experiments:
Test in all cases: NCI tumour cell line growth inhibition, 48 h
ACHN renal = tested on: ACHN renal
CAKI-1 renal = tested on: CAKI-1 renal
HCC-2998 colon = tested on: HCC-2998 colon
HOP-62 NSCLC = tested on: HOP-62 NSCLC
IGROV1 ovarian = tested on: IGROV1 ovarian
NCI-H226 lung = tested on: NCI-H226 lung
PC-3 prostate = tested on: PC-3 prostate
SF-295 CNS = tested on: SF-295 CNS
SF-539 CNS = tested on: SF-539 CNS
SK-MEL-28 melanoma = tested on: SK-MEL-28 melanoma
SK-OV-3 ovarian = tested on: SK-OV-3 ovarian
UACC-62 melanoma = tested on: UACC-62 melanoma

Row | Structure (SMILES) | TGI (ACHN renal) [µM] | TGI (CAKI-1 renal) [µM] | TGI (HCC-2998 colon) [µM] | TGI (HOP-62 NSCLC) [µM] | TGI (IGROV1 ovarian) [µM] | TGI (NCI-H226 lung) [µM] | TGI (PC-3 prostate) [µM] | TGI (SF-295 CNS) [µM] | TGI (SF-539 CNS) [µM] | TGI (SK-MEL-28 melanoma) [µM] | TGI (SK-OV-3 ovarian) [µM] | TGI (UACC-62 melanoma) [µM] | GI50 (ACHN renal) [µM] | GI50 (HCC-2998 colon) [µM] | GI50 (HOP-62 NSCLC) [µM] | GI50 (NCI-H226 lung) [µM] | GI50 (SF-539 CNS) [µM] | GI50 (SK-MEL-28 melanoma) [µM] | GI50 (SK-OV-3 ovarian) [µM]
1 | COc1cc(OC)c2c(O)c3c(cc2c1)CC(C)(C)CC3=O | > 100 | > 100 | > 100 | > 100 | > 100 | > 100 | > 100 | > 100 | > 100 | > 100 | > 100 | > 100 |  |  |  |  |  |  | 
2 | CC(C)[C@@H]1CC[C@@H](C)C[C@H]1OC(=O)/C=C1/C2C=CC(O2)C1C(=O)O[C@@H]1C[C@H](C)CC[C@H]1C(C)C (some centres undefined) | > 100 | > 100 | > 100 | > 100 | > 100 | > 100 | > 100 | > 100 | > 100 | > 100 | > 100 | > 100 |  |  |  |  |  |  | 
3 | O=C1C(NCCc2ccc(O)c(O)c2)=CC(=O)c2ncccc21 | 33.5 | 21.5 | 27.8 | 49.9 | 27.2 | 30.5 | > 100 | 28.5 | 30.1 | 28.8 | 38.5 | 22.5 |  |  |  |  |  |  | 
4 | C=CC1ON(Cc2ccccc2)CCc2cc(OC)c(OC)cc21 (centres undefined) | > 100 | > 100 | > 100 | > 100 | > 100 | > 100 | > 100 | > 100 | > 100 | > 100 | > 100 | > 100 |  |  |  |  |  |  | 
5 | CC(C)=CC(=O)O[C@H]1C(=O)O[C@@H]2C[C@H]3[C@H](C)C(=O)C(O[C@@H]4O[C@H](CO)[C@@H](O)[C@H](O)[C@H]4O)=C[C@]3(C)[C@H]3[C@@H](O)[C@H](O)[C@]4(C(=O)O)OC[C@]32[C@@H]14 | > 100 | > 100 | 57.5 | > 100 | > 100 | 85 | > 100 |  | 67.1 | > 100 | > 100 | > 100 | > 100 | 24.7 | 33.2 | 28.4 | 26.6 | 37.3 | > 100
6 | O=C(/C=C/c1cccc(Br)c1)c1cccs1 | 39.8 | 32.6 | 61.3 | 73.8 | 36.6 | 32.7 | 31.6 | 30.2 | 31.9 | 32.9 | 46.8 | 32.7 |  |  |  |  |  |  | 
7 | CC(=O)N1CCc2c([nH]c3ccc(Br)cc23)C1c1ccccc1 (centres undefined) | > 10 | > 10 | > 10 | > 10 | > 10 | > 10 | > 10 | > 10 | > 10 | > 10 | > 10 | > 10 |  |  |  |  |  |  | 
8 | CCOC(=O)N1CCN(c2ccc3c(C)cc(C)nc3n2)CC1 | > 100 | > 100 | > 100 | > 100 | > 100 | > 100 | > 100 | > 100 | > 100 | > 100 | > 100 | > 100 |  |  |  |  |  |  | 
9 | Clc1cc2c(c(CSC3=NCN(CC4CC4)CN3)c1)OCOC2 | 45.6 | > 100 | 28.4 | 86.7 | > 100 | 48.9 | 65.8 | > 100 | 43.4 | 38.3 | 67.1 | 35.3 |  |  |  |  |  |  | 
